# Experimental data taken from US20210308089A1, “METHODS OF TREATING AND/OR PREVENTING VIRAL INFECTIONS AND/OR DISEASES CAUSED BY VIRUSES IN A SUBJECT IN NEED THEREOF” (priority 2020, published 2021).
# Tests used:
# [1] = human, in vivo, 1 year
# Description: Additional laboratory tests: Additional laboratory tests were performed and included: • A urine pregnancy test was administered to women of childbearing potential at certain visits as listed in schedule of procedures (Table 1). The urine pregnancy tests were performed at the Research Site utilizing marketed test kits, or at a certified clinical laboratory; • A fasting blood sample (10 mL) for archiving. This sample was collected only at sites in countries where allowed by local regulations and at sites for which approved by the IRB or IEC. The plasma from the archiving sample was stored frozen in 2 separate equal aliquots, and was used at the Sponsor's discretion to perform repeat analyses described in the protocol or to perform other tests related to cardiovascular health; and • Potential non-genetic bioassays were performed, including but not limited to: Apo A1, Apo C3, Apo E, NMR lipid profile (particle size and number), oxidized LDL, Lp(a), Lp-PLA2, serum fatty-acids concentrations, and gamma-glutamyltransferase (GGT).
# In addition, the following were analyzed as tertiary endpoints for the ITT population: • Relationship between on-treatment hs-CRP and the primary and key secondary endpoints; and • Relationship between on-treatment serum eicosapentaenoic acid (EPA) and the primary and key secondary endpoints. […]
# [2] = system: statin-treated patients with established atherosclerosis or diabetes and elevated triglycerides; test: REDUCE-IT: total (first and recurrent) ischemic events analysis; assay type: in vivo, human
# Description: The following study was a multi-center, placebo-controlled clinical trial the details of which are described above in Example 1, the REDUCE-IT design. […] Randomization was stratified by cardiovascular risk cohort (i.e., secondary or primary prevention), use of ezetimibe, and by geographic region.
# The primary outcome for the study was total recurrent events consisting of the composite of cardiovascular death, nonfatal myocardial infarction, nonfatal stroke, coronary revascularization, or hospitalization for unstable angina. Recurrent event analyses were also performed for the key secondary endpoint, a composite of cardiovascular death, nonfatal myocardial infarction, or nonfatal stroke. For each of these composite endpoints, the effects of icosapent ethyl in the secondary and primary prevention strata were examined separately.
# Demographic and baseline disease characteristics are presented using frequencies and percentages for categorical variables and medians with interquartile ranges for continuous variables. Between treatment group comparisons were derived using the chi-square test for categorical variables and Wilcoxon rank test for continuous variables. All clinical endpoint events used in the efficacy analyses were adjudicated by an independent Clinical Endpoint Committee (CEC) who were blinded to the treatment assignment. Since the primary efficacy endpoint was the time from randomization to the first occurrence of any component of the composite endpoint, and recurrence of such events within each patient is possible, a pre-specified analysis using a Cox proportional-hazard with the counting-process formulation of Andersen and Gill was performed to model the first and all recurrent cardiovascular events. HRs and corresponding 95% CIs are reported from this model. In addition, as a marginal model and an extension of survival models based on the Cox proportional hazard model, the modified Wei-Lin-Weissfeld (WLW) method for analysis of recurrent events in the presence of deaths was carried out as a supportive analysis. In addition, as pre-specified, a recurrent event analysis using the Andersen-Gill and Wei-Lin-Weissfeld methods was carried out for the individual primary event components other than CV death. Though not pre-specified, additional recurrent event analyses were performed for the key secondary endpoint, which is a composite of CV death, nonfatal MI, or nonfatal stroke, and for the primary endpoint and the key secondary endpoint in the primary and secondary prevention strata to explore further the consistency of clinical benefit of icosapent ethyl. In subgroup analyses of the two cardiovascular risk strata (i.e., primary and secondary prevention), site-level discrepancies in cardiovascular risk group assignment occurring at entry and detected during the study (1.8%) were adjusted to conform with documented medical history data prior to randomization. All efficacy analyses were performed according to the intention-to-treat principle. All tests were based on a 2-sided nominal significance level of 5% with no adjustments for multiple comparisons.
# [3] = system: symptomatic COVID-19 outpatients with positive SARS-CoV-2 test; test: VASCEPA-COVID-19: adverse events; assay type: in vivo, human
# Description: Safety monitoring was undertaken at each study visit in accordance with Health Canada regulations and local reporting guidelines. All serious, unexpected adverse drug reactions (ADRs) were reported to Health Canada in accordance with Division 5 of Part C of the Food and Drug Regulations.
# An adverse event (AE) is defined as any untoward medical occurrence, including an exacerbation of a pre-existing condition, in a patient in a clinical investigation who received a pharmaceutical product.
# The intensity of the AE should be judged based on the following: • a) Mild: Awareness of sign(s) or symptom(s) that is/are easily tolerated; • b) Moderate: Sufficient discomfort to cause interference with usual activity; or • c) Severe: Incapacitating or causing inability to work or to perform usual activities.
# [4] = n = 50, intention-to-treat, usual care 0
# [5] = n = 50, intention-to-treat, usual care 6
smiles,measurement,setting,value
"CC/C=C\C/C=C\C/C=C\C/C=C\C/C=C\CCCC(=O)OCC [icosapent ethyl, eicosapentaenoic acid ethyl ester]","EPA between group difference, median % change from baseline",[1],358.8%
same,"EPA between group difference, median absolute change from baseline",[1],114.9 µg/mL
same,Total primary endpoint events: HR vs placebo,[2]; overall trial,0.68
same,Total primary endpoint events prevented,[2]; per 100 patients treated for five years,approximately 16
same,Total key secondary endpoint: HR,"[2]; primary prevention stratum, vs placebo",0.71
same,Total key secondary endpoint: HR,"[2]; secondary prevention stratum, vs placebo",0.70
same,First events reduced by,[2]; vs placebo,25%
same,Second events reduced by,[2]; vs placebo,28%
same,Third or more events reduced by,[2]; vs placebo,50%
same,Total events for the primary composite efficacy outcome: relative risk reduction,[2]; vs placebo,32%
same,Discontinuations with the 8 g per day loading dose,[3]; VASCEPA-COVID-19,no discontinuations
same,Tolerability,"[3]; VASCEPA-COVID-19, 14 days",well tolerated
same,Serious AEs or deaths,[3]; VASCEPA-COVID-19 trial population,No serious AEs or deaths occurred
same,"Mild adverse events: Gastrointestinal disorders, %",[3]; [4],8%
same,"Moderate adverse events: Gastrointestinal disorders, %",[3]; [4],2%
same,"Moderate adverse events: Respiratory disorders, %",[3]; [5],2%
same,"Total adverse events, %",[3]; [5],12%
